Assays:
HCT-116 cell line = test: MTT assay, HCT-116 cell line; type: cell-based, human; conditions: MTT, 24 hr treatment, in % (unit assumed); for Cytotoxicity at 5 µg/l: HCT116, 5 µg/l; for Cytotoxicity at 10 µg/l: HCT116, 10 µg/l; for Cytotoxicity at 20 µg/l: HCT116, 20 µg/l
Description: (§1) Determination of the inhibitory effects of compounds on cell growth was performed through the MTT assay. This colorimetric assay is based on the conversion of the yellow tetrazolium bromide (MTT) to a purple formazan derivative by mitochondrial succinate dehydrogenase in viable cells. The protocol was discussed in details in Additional file 1.
(§2) Compounds 1, 4a,b, 7a–c, 7k, l, 9a–c, 14a, 15b, 16a–c were selected to be investigated against three human cancer cell lines MCF7, HepG2 and HCT116 cell lines using MTT assay using doxorubicin as the standard drug. Each point is the mean ± SD (standard deviation) of three independent experiments performed in triplicate, using the prism software program (integrated Graphpad software, version 3).
(§3) Cell lines were used to measure the cell growth effects of the compounds using the MTT assay. This colorimetric assay is depend on the conversion of the yellow tetrazolium bromide (MTT) to a purple formazan derivative by mitochondrial succinate dehydrogenase in living cells. Cell lines were cultured in RPMI-1640 medium supplemented with 10% fetal bovine serum. The antibiotics added were 100 units/ml penicillin and 100 µg/ml streptomycin at 37 °C in a 5% CO2 incubator. Cell lines were seeded in a 96-well plates at a density of 1.0x10^4 cells/well and cultured at 37 °C for 48 h under 5% CO2. After incubation, the cells were treated with different concentrations of compounds and incubated for 24 hr. After 24 hr of drug treatment, 20 µl of MTT solution at 5 mg/ml was added to each well and incubated for 4 hr. 100 µl of dimethyl sulfoxide (DMSO) was added into each well to dissolve the purple formazan formed. The colorimetric assay was measured and recorded at absorbance of 570 nm using a plate reader (EXL 800, USA). Relative cell viability (%) was calculated as (A570 of treated sample/A570 of untreated sample) x 100 [36, 37].

HepG2 cell line = test: MTT assay, HepG2 cell line; type: cell-based, human; conditions: MTT, 24 hr treatment, in % (unit assumed); for Cytotoxicity at 5 µg/l: HepG2, 5 µg/l; for Cytotoxicity at 10 µg/l: HepG2, 10 µg/l; for Cytotoxicity at 20 µg/l: HepG2, 20 µg/l
Description: as §1, §2, §3

MCF7 cell line = test: MTT assay, MCF7 cell line; type: cell-based, human; conditions: 24 hr treatment, in % (unit assumed); for Cytotoxicity at 5 µg/l: MCF7, 5 µg/l; for Cytotoxicity at 10 µg/l: MCF7, 10 µg/l; for Cytotoxicity at 20 µg/l: MCF7, 20 µg/l
Description: as §1, §2, §3

melting point [°C]	Compound	Cytotoxicity at 5 µg/l (HCT-116 cell line)	Cytotoxicity at 10 µg/l (HCT-116 cell line)	Cytotoxicity at 20 µg/l (HCT-116 cell line)	Cytotoxicity at 5 µg/l (HepG2 cell line)	Cytotoxicity at 10 µg/l (HepG2 cell line)	Cytotoxicity at 20 µg/l (HepG2 cell line)	Cytotoxicity at 5 µg/l (MCF7 cell line)	Cytotoxicity at 10 µg/l (MCF7 cell line)	Cytotoxicity at 20 µg/l (MCF7 cell line)
285	Cc1ccc(NN=C2C(=O)NC(=O)c3c2nn2c(C)cc(C)nc32)cc1 [Compound 9b, 2,4-Dimethyl-7-(2-(p-tolyl)hydrazono)pyrido[4ʹ,3ʹ:3,4]pyrazolo[1,5-a]pyrimidine-8,10(7H,9H)-dione]	22.09	40.50	59.80	8.46	33.81	73.11	33.82	51.19	72.13
315	O=C1NC(=O)c2c(nn3c(-c4ccccc4)cc(-c4ccccc4)nc23)C1=Cc1cccs1 [Compound 7s, 2,4-Diphenyl-7-(thiophen-2-ylmethylene)pyrido[4ʹ,3ʹ:3,4]pyrazolo[1,5-a]pyrimidine-8,10(7H,9H)-dione]									
320	O=C1NC(=O)c2c(nn3c(-c4ccccc4)cc(-c4ccccc4)nc23)C1=Cc1ccc(Cl)cc1 [Compound 7m, 7-(4-Chlorobenzylidene)-2,4-diphenylpyrido[4ʹ,3ʹ:3,4]pyrazolo[1,5-a]pyrimidine-8,10(7H,9H)-dione]									
300	O=C1NC(=O)c2c(nn3c(O)cc(-c4ccccc4)nc23)C1=Cc1ccccc1 [Compound 15d, 7-Benzylidene-4-hydroxy-2-phenylpyrido[4ʹ,3ʹ:3,4]pyrazolo[1,5-a]pyrimidine-8,10(7H,9H)-dione]									

The remaining lines, values behind:

Compound	melting point [°C]	Cytotoxicity at 5 µg/l (HCT-116 cell line)	Cytotoxicity at 10 µg/l (HCT-116 cell line)	Cytotoxicity at 20 µg/l (HCT-116 cell line)	Cytotoxicity at 5 µg/l (HepG2 cell line)	Cytotoxicity at 10 µg/l (HepG2 cell line)	Cytotoxicity at 20 µg/l (HepG2 cell line)	Cytotoxicity at 5 µg/l (MCF7 cell line)	Cytotoxicity at 10 µg/l (MCF7 cell line)	Cytotoxicity at 20 µg/l (MCF7 cell line)
COc1ccc(C=C2C(=O)NC(=O)c3c2nn2c(-c4ccccc4)cc(-c4ccccc4)nc32)cc1 [Compound 7l]	315	57.14	61.58	91.59	40.25	71.84	96.62	40.19	52.28	97.26
Cc1cc(C)n2nc3c(c2n1)C(=O)NC(=O)C3=Cc1ccccc1 [Compound 7a, 7-Benzylidene-2,4-dimethylpyrido[4ʹ,3ʹ:3,4]pyrazolo[1,5-a]pyrimidine-8,10(7H,9H)-dione]	240	50.82	84.52	91.78	38.17	42.56	76.04	30.13	45.66	66.12
O=C1NC(=O)c2c(nn3c(-c4ccccc4)cc(-c4ccccc4)nc23)C1=Cc1ccccc1 [Compound 7k, 7-Benzylidene-2,4-diphenylpyrido[4ʹ,3ʹ:3,4]pyrazolo[1,5-a]pyrimidine-8,10(7H,9H)-dione]	275	39.48	46.55	62.92	41.84	88.59	90.19	36.19	55.16	71.12
O=C1Cc2nn3c(-c4ccccc4)cc(-c4ccccc4)nc3c2C(=O)N1 [Compound 4b, 2,4-Diphenylpyrido[4ʹ,3ʹ:3,4]pyrazolo[1,5-a]pyrimidine-8,10(7H,9H)-dione]	300	7.31	21.33	66.23	38.14	43.81	76.43	22.19	55.85	70.37
Cc1cc(C)n2nc3c(c2n1)C(=O)NC(=O)C3=Cc1cccs1 [Compound 7i, 2,4-Dimethyl-7-(thiophen-2-ylmethylene)pyrido[4ʹ,3ʹ:3,4]pyrazolo[1,5-a]pyrimidine-8,10(7H,9H)-dione]	290									
